Results published in patent publication US12459951B2, “Compounds that interact with RAS superfamily proteins for treatment of cancers, inflammatory diseases, rasopathies, and fibrotic disease” (SHY Therapeutics, LLC, priority 2022, dated 2025).
Like-named read-outs stand apart in the source and are kept apart here.

Key:
[1] = tested on: MiaPaca-2 (expressing KRAS G12C mutant); assay: Proliferation Assay (Cell Viability Assay); type: cell-based; conditions: Homo sapiens, MIA PaCa-2
In short: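 After 2–4 days' exposure at 37 °C, 5% CO2 to a single 10 μM final concentration or a dilution series (IC50), percent proliferation inhibition was derived from CellTiter 96 Aqueous One viability readings. The medium contained 0.3% DMSO and 10% FBS. KRAS G12C MiaPaca-2 cells were plated at 2000–5000/well the day before.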

[2] = tested on: KRas wild type; assay: Ras GTP Binding Domain Inhibition Assay (Ras Superfamily Assay); conditions: 20 μM compound; for KRas wild type + SOS: % inh.: with SOS; for KRas wild type: % inh.: without SOS
In short: (§1)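 His-tagged GTPases immobilised on nickel-coated plates, pre-incubated with compound (20 μM single point, or serial dilution for IC50) 3 h at room temperature, with or without 10-30 μg/mL Sos (residues 556-1049) in the final hour. Bound Cy3- or Cy5-GTP (100 nM, 45 min) measured by fluorescence after washing.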

[3] = tested on: KRas G12D mutant; assay: as above; conditions: 20 μM compound; for KRas G12D mutant + SOS: % inh.: with SOS; for KRas G12D mutant: % inh.: without SOS
In short: as §1

[4] = target: T1, Rac-1 (Homo sapiens, UniProt P63000); assay: as above; conditions: read-out: Rac-1: % inh.
T1 construct: made in house
In short: as §1

[5] = read-out: Proliferation in MiaPaca-2: IC50

SMILES | IC50 ([1]; Proliferation assay, MiaPaca-2, read-out: MiaPaca-2 IC50 (nM) Pancreatic) [nM] | IC50 [1, 5] [nM] | KRas wild type + SOS: % inh. [2] | KRas wild type: % inh. [2] | KRas G12D mutant + SOS: % inh. [3] | KRas G12D mutant: % inh. [3] | inhibition at 20 µM [4] [%]
Cc1c(-c2ccn(C)n2)cn2nc(-c3nccn3C)nc(Nc3cc4n(n3)CCO4)c12 [Compound 124, N-(5-Methyl-2-(1-methyl-1H-imidazol-2-yl)-6-(1-methyl-1H-pyrazol-3-yl)pyrrolo[2,1-f][1,2,4]triazin-4-yl)-2,3-dihydropyrazolo[5,1-b]oxazol-6-amine] | 1 to 10 | < 150 | C (C = 50-75% inhibition) | D (D = 76-100% inhibition) | C (C = 50-75% inhibition) | C (C = 50-75% inhibition) | 76 to 100
Cc1ccnc(Nc2nc(-c3nccn3C)nn3cc(-c4ccn(C5CC5)n4)c(C)c23)c1 [Compound 144, 6-(1-Cyclopropyl-1H-pyrazol-3-yl)-5-methyl-2-(1-methyl-1H-imidazol-2-yl)-N-(4-methylpyridin-2-yl)pyrrolo[2,1-f][1,2,4]triazin-4-amine] | – | < 150 | D (D = 76-100% inhibition) | C (C = 50-75% inhibition) | D (D = 76-100% inhibition) | D (D = 76-100% inhibition) | 76 to 100
CO[C@H]1C[C@H](Nc2nc(-c3nccn3C)nn3cc(-c4ccncc4)c(C)c23)C1 [Compound 159, N-((1r,3r)-3-Methoxycyclobutyl)-5-methyl-2-(1-methyl-1H-imidazol-2-yl)-6-(pyridin-4-yl)pyrrolo[2,1-f][1,2,4]triazin-4-amine] | – | > 1000 | 0 (0 = 0% inhibition) | A (A = 1-25% inhibition) | 0 (0 = 0% inhibition) | 0 (0 = 0% inhibition) | 0
COc1ccnc(Nc2nc(-c3nccn3C)nn3cc(-c4cccnc4)c(-c4ccccn4)c23)c1 [Compound 166, N-(4-Methoxypyridin-2-yl)-2-(1-methyl-1H-imidazol-2-yl)-5-(pyridin-2-yl)-6-(pyridin-3-yl)pyrrolo[2,1-f][1,2,4]triazin-4-amine] | – | > 1000 | D (D = 76-100% inhibition) | C (C = 50-75% inhibition) | D (D = 76-100% inhibition) | D (D = 76-100% inhibition) | 76 to 100
COc1ccnc(Nc2nc(-c3nccn3C)nn3cc(-c4cccnc4)c(C)c23)c1 [Compound 157, N-(4-Methoxy-pyridin-2-yl)-5-methyl-2-(1-methyl-1H-imidazol-2-yl)-6-(pyridin-3-yl)pyrrolo[2,1-f][1,2,4]triazin-4-amine] | – | < 150 | D (D = 76-100% inhibition) | D (D = 76-100% inhibition) | D (D = 76-100% inhibition) | D (D = 76-100% inhibition) | 76 to 100
Cc1c(-c2ccn(C3CC3)n2)cn2nc(-c3nccn3C)nc(Nc3cc(OCCO)ccn3)c12 [Compound 146, 2-((2-((6-(1-Cyclopropyl-1H-pyrazol-3-yl)-5-methyl-2-(1-methyl-1H-imidazol-2-yl)pyrrolo[2,1-f][1,2,4]triazin-4-yl)amino)pyridin-4-yl)oxy)ethan-1-ol] | – | 150 to 500 | D (D = 76-100% inhibition) | D (D = 76-100% inhibition) | D (D = 76-100% inhibition) | D (D = 76-100% inhibition) | 76 to 100
Cc1c(-c2ccn(C3CC3)n2)cn2nc(-c3nccn3C)nc(Nc3cc(OCC(F)(F)F)ccn3)c12 [Compound 140, 6-(1-Cyclopropyl-1H-pyrazol-3-yl)-5-methyl-2-(1-methyl-1H-imidazol-2-yl)-N-(4-(2,2,2-trifluoroethoxy)pyridin-2-yl)pyrrolo[2,1-f][1,2,4]triazin-4-amine] | – | < 150 | C (C = 50-75% inhibition) | C (C = 50-75% inhibition) | D (D = 76-100% inhibition) | C (C = 50-75% inhibition) | 76 to 100
COc1cnc(Nc2nc(-c3nccn3C)nn3cc(-c4ccn(C)n4)c(C)c23)cn1 [Compound 110, N-(5-Methoxypyrazin-2-yl)-5-methyl-2-(1-methyl-1H-imidazol-2-yl)-6-(1-methyl-1H-pyrazol-3-yl)pyrrolo[2,1-f][1,2,4]triazin-4-amine] | – | < 150 | C (C = 50-75% inhibition) | B (B = 26-49% inhibition) | B (B = 26-49% inhibition) | C (C = 50-75% inhibition) | 50 to 75
Cc1c(-c2ccn(C)n2)cn2nc(-c3nccn3C)nc(Nc3cn(C(C)C)nn3)c12 [Compound 109, N-(1-Isopropyl-1H-1,2,3-triazol-4-yl)-5-methyl-2-(1-methyl-1H-imidazol-2-yl)-6-(1-methyl-1H-pyrazol-3-yl)pyrrolo[2,1-f][1,2,4]triazin-4-amine] | – | 510 to 1000 | C (C = 50-75% inhibition) | D (D = 76-100% inhibition) | C (C = 50-75% inhibition) | D (D = 76-100% inhibition) | 76 to 100
CO[C@H]1C[C@H](Nc2nc(-c3nccn3C)nn3cc(-c4cccnc4)c(-c4ccccn4)c23)C1 [Compound 168, N-((1r,3r)-3-Methoxycyclobutyl)-2-(1-methyl-1H-imidazol-2-yl)-5-(pyridin-2-yl)-6-(pyridin-3-yl)pyrrolo[2,1-f][1,2,4]triazin-4-amine] | – | > 1000 | A (A = 1-25% inhibition) | A (A = 1-25% inhibition) | A (A = 1-25% inhibition) | B (B = 26-49% inhibition) | 1 to 25
Cc1c(-c2ccn(C(C)C)n2)cn2nc(-c3nccn3C)nc(Nc3nccc(OCCO)n3)c12 [Compound 121, 2-((2-((6-(1-Isopropyl-1H-pyrazol-3-yl)-5-methyl-2-(1-methyl-1H-imidazol-2-yl)pyrrolo[2,1-f][1,2,4]triazin-4-yl)amino)pyrimidin-4-yl)oxy)ethan-1-ol] | – | 510 to 1000 | C (C = 50-75% inhibition) | D (D = 76-100% inhibition) | D (D = 76-100% inhibition) | D (D = 76-100% inhibition) | 76 to 100
Cc1c(-c2ccn(C(C)C)n2)cn2nc(-c3nccn3C)nc(Nc3nccn3C)c12 [Compound 93, 6-(1-Isopropyl-1H-pyrazol-3-yl)-5-methyl-N,2-bis(1-methyl-1H-imidazol-2-yl)pyrrolo[2,1-f][1,2,4]triazin-4-amine] | – | 150 to 500 | D (D = 76-100% inhibition) | D (D = 76-100% inhibition) | D (D = 76-100% inhibition) | D (D = 76-100% inhibition) | 76 to 100
